ChEMBL document CHEMBL2203115, “Design and synthesis of procollagen C-proteinase inhibitors” (Bioorg Med Chem Lett, 2012)
Peptide text beside a SMILES is read from it. * marks the point of attachment. NHOH = ON*

How the values were obtained:
[1] = biological target: T1, Bone morphogenetic protein 1 (Homo sapiens, UniProt P13497); test: Inhibition of PCP after 1 hr by fluorescence assay
T1 sequence (P13497 whole entry): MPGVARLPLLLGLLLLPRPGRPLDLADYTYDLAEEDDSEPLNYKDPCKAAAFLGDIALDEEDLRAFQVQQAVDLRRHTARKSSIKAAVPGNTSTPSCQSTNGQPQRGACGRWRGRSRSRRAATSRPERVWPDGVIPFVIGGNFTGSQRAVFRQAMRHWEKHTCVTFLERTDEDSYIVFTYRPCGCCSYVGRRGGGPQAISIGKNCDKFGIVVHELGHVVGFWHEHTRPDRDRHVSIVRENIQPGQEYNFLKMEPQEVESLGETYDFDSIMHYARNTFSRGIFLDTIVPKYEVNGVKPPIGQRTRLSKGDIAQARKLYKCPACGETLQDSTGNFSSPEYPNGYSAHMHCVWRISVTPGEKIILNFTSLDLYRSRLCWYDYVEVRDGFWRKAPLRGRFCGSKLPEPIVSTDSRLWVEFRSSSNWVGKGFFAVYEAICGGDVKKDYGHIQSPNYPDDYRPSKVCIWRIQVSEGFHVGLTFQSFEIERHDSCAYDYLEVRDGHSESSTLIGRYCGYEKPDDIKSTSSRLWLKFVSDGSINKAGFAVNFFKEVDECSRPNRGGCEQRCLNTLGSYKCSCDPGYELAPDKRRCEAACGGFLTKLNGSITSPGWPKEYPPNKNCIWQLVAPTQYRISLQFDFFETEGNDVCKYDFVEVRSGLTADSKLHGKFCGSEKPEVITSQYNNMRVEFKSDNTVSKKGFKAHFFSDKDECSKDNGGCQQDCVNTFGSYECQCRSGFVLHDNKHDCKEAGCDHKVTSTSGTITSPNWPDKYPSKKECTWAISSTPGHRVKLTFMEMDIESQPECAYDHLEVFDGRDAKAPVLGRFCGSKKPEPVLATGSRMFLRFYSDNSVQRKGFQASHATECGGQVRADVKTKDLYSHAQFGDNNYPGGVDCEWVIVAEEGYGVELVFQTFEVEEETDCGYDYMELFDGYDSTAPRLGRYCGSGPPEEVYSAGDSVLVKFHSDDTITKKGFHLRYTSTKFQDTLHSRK

[2] = biological target: Matrix metalloproteinase-9 (Homo sapiens, UniProt P14780); test: Inhibition of para-amino phenylmercuric acetate-activated MMP9 using Mca-P-L-G-L-Dap(Dnp)-A-R-NH2 as substrate after 1 hr by fluorescence assay
[3] = biological target: T2, Interstitial collagenase (Homo sapiens, UniProt P03956); test: Inhibition of para-amino phenylmercuric acetate-activated MMP1 using Mca-P-L-G-L-Dap(Dnp)-A-R-NH2 as substrate after 1 hr by fluorescence assay
T2 sequence (P03956 whole entry): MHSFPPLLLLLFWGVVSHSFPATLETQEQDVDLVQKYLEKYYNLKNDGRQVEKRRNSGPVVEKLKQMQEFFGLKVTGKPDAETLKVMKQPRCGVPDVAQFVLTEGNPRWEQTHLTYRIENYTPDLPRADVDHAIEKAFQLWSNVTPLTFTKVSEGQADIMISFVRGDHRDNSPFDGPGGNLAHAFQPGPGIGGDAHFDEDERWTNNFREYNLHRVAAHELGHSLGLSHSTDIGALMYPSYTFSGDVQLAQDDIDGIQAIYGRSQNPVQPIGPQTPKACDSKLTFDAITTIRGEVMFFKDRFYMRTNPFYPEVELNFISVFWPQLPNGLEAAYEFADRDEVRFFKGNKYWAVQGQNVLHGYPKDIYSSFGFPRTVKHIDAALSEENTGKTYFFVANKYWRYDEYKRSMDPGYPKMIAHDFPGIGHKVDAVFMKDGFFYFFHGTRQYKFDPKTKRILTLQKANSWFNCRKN

[4] = biological target: 72 kDa type IV collagenase (Homo sapiens, UniProt P08253); test: Inhibition of para-amino phenylmercuric acetate-activated MMP2 using Mca-P-L-G-L-Dap(Dnp)-A-R-NH2 as substrate after 1 hr by fluorescence assay
[5] = test system: 3T3-L1; test: Cytotoxicity against mouse 3T3L1 cells; assay type: cell-based

Chain of Matrix metalloproteinase-9 (P14780 whole entry): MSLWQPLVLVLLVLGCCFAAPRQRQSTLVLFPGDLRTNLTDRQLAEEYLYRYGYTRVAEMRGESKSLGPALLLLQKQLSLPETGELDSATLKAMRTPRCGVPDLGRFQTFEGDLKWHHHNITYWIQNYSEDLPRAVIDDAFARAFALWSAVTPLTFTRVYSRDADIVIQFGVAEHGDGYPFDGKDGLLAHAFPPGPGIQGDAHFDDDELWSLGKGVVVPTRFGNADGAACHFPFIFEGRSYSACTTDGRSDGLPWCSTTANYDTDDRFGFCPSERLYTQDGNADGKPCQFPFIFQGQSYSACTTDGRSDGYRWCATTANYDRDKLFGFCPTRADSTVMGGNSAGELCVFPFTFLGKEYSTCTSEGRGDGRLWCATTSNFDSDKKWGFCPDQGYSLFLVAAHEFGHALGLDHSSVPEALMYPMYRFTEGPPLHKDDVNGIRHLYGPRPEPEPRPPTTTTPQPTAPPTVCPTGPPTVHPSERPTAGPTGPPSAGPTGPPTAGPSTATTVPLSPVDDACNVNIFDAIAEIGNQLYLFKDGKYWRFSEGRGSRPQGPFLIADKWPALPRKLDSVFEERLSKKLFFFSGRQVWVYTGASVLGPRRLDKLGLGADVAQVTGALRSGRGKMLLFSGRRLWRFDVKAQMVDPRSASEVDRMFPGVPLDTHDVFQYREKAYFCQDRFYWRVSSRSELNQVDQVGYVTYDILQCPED
Chain of 72 kDa type IV collagenase (P08253 whole entry): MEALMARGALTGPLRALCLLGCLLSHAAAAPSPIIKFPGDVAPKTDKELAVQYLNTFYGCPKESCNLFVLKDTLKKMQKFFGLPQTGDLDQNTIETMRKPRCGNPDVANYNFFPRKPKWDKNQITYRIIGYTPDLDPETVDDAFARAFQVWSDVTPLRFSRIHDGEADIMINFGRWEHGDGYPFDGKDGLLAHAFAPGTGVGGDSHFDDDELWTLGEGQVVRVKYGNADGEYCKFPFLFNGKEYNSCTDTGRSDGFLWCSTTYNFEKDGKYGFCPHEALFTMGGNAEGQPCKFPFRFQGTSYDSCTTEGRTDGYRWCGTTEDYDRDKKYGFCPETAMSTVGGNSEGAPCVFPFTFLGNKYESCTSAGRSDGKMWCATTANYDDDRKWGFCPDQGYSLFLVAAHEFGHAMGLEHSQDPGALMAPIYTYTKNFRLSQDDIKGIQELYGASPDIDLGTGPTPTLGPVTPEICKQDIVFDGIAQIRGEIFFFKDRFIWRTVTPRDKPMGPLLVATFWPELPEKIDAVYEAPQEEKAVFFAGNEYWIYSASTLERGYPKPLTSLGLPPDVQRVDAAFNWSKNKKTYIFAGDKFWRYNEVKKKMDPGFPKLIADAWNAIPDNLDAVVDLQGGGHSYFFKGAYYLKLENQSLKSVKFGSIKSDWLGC

| IC50 [1] [µM] | Structure (SMILES) | other results |
| --- | --- | --- |
| 2.2 | O=C(CCN(CCc1ccccc1)S(=O)(=O)c1ccccc1)NO |  |
| 1 | O=C(CCN(CCc1ccccc1)S(=O)(=O)c1ccc(C(=O)O)cc1)NO |  |
| 7.1 | COc1ccc(CCN(CCC(=O)NO)S(=O)(=O)c2ccccc2/C(N)=N\O)cc1 |  |
| 9.1 | COc1ccc(CCN(CCC(=O)NO)S(=O)(=O)c2ccccc2S(C)(=O)=O)cc1 |  |
| 17 | CC(C)(C)c1ccc(S(=O)(=O)N(CCC(=O)NO)CCc2ccccc2)cc1 |  |
| 3 | COc1ccc(S(=O)(=O)N(CCC(=O)NO)c2ccccc2)cc1 |  |
| 4.5 | COc1ccc(S(=O)(=O)N(CCC(=O)NO)Cc2ccccc2)cc1 |  |
| 10 | COc1ccc(S(=O)(=O)N(CCCC(=O)NO)Cc2ccccc2)cc1 |  |
| 8.1 | COc1ccc(S(=O)(=O)N(CCC(=O)NO)CCc2ccccn2)cc1 |  |
| 2.3 | COc1ccc(S(=O)(=O)N(CCC(=O)NO)CCc2cccc(OC)c2)cc1 |  |
| 11 | COc1ccc(S(=O)(=O)N(CCC(=O)NO)CCc2ccc([N+](=O)[O-])cc2)cc1 |  |
| 23 | COc1ccc(S(=O)(=O)N(CCC(=O)NO)CCc2ccc(S(N)(=O)=O)cc2)cc1 |  |
| 18 | COc1ccc(S(=O)(=O)N(CCc2ccccc2)CC(=O)NO)cc1 |  |
| 16 | COc1ccc(S(=O)(=O)N(CC(=O)NO)Cc2ccccc2)cc1 |  |

Continued, compound first:

| Structure (SMILES) | IC50 [1] [µM] | other results |
| --- | --- | --- |
| COc1ccc(S(=O)(=O)N(CCC(=O)NO)CCc2ccc(OC)c(OC)c2)cc1 | 42 |  |
| COc1ccc(CCN(CCC(=O)NO)S(=O)(=O)c2ccc(NC(=O)NCc3ccccc3)cc2)cc1 |  | IC50 [2]: > 25 µM; IC50 [3]: > 25 µM; IC50 [4]: > 25 µM |
| COc1ccc(S(=O)(=O)NCCC(=O)NO)cc1 | 166 |  |
| CCCCS(=O)(=O)N(CCC(=O)NO)CCc1ccc(OC)cc1 | 6.7 |  |
| CCCCS(=O)(=O)N(CCc1ccc(OC)cc1)CC(=O)NO | 55 |  |
| COc1ccc(CCN(CCC(=O)NO)S(=O)(=O)c2ccc(/C(N)=N/O)cc2)cc1 |  | IC50 [5]: 150 µM; IC50 [2]: > 25 µM; IC50 [3]: > 25 µM; IC50 [4]: > 25 µM |
| COc1ccc(CCN(CCC(=O)NO)S(=O)(=O)c2ccc(S(C)(=O)=O)cc2)cc1 |  | IC50 [2]: > 6 µM; IC50 [4]: > 6 µM |
| COc1ccc(CCN(CC(=O)CS)S(=O)(=O)c2ccc(S(C)(=O)=O)cc2)cc1 | 4.7 |  |
| COc1ccc(CCN(CCC(=O)CS)S(=O)(=O)c2ccc(S(C)(=O)=O)cc2)cc1 | 13 |  |
| COc1ccc(CCN(CCN(O)C(N)=O)S(=O)(=O)c2ccc(S(C)(=O)=O)cc2)cc1 | > 100 |  |
| COc1ccc(CCN(CCCS)S(=O)(=O)c2ccc(S(C)(=O)=O)cc2)cc1 | 14 |  |
| COc1ccc(CCN(CCS)S(=O)(=O)c2ccc(S(C)(=O)=O)cc2)cc1 | 9.4 |  |
| COc1ccc(S(=O)(=O)N(CCCC(=O)NO)c2ccccc2)cc1 | 28 |  |
| COc1ccc(S(=O)(=O)N(CC(=O)NO)Cc2ccc(F)cc2)cc1 | 34 |  |
| CCCCOC(=O)CN(CC(=O)NO)S(=O)(=O)c1ccc(OC)cc1 | 167 |  |
| COc1ccc(N(CC(=O)NO)S(=O)(=O)c2ccc(OC)cc2)cc1 | 73 |  |
| COc1ccc(CCN(CC(=O)NO)S(=O)(=O)c2ccc(OC)cc2)cc1 | 18 |  |

| Structure (SMILES) | IC50 [1] [µM] | other results |
| --- | --- | --- |
| COc1ccc(S(=O)(=O)N(CC(=O)NO)Cc2ccc(C(F)(F)F)cc2)cc1 | 67 |  |
| COc1ccc(S(=O)(=O)N(CC(=O)NO)C(c2ccccc2)c2ccccc2)cc1 | 102 |  |
| CCC(C)N(CCC(=O)NO)S(=O)(=O)c1ccc(OC)cc1 (stereo not given) | 1.7 |  |
| COc1ccc(S(=O)(=O)N(CCC(=O)NO)CC2CCCCC2)cc1 | 1 |  |
| COc1ccc(N(CCC(=O)NO)S(=O)(=O)c2ccc(OC)cc2)cc1 | 1.7 |  |
| CNC(=O)[C@H](CCC(=O)O)NC(=O)[C@H](CC(=O)O)NCC(=O)O | 1500 |  |
| CNC(=O)[C@H](CCC(=O)O)NC(=O)C(CS)CC(=O)O (stereo not given in full) | 85 |  |
| COc1ccc(S(=O)(=O)N[C@@H](CC(=O)O)C(=O)NO)cc1 | 10 |  |
| COc1ccc(S(=O)(=O)N(Cc2ccccc2)[C@@H](CC(=O)O)C(=O)NO)cc1 | 2.8 |  |
| COc1ccc(S(=O)(=O)N(CC(=O)NO)c2ccccc2)cc1 | 69 |  |
| COc1ccc(S(=O)(=O)N(CC(=O)NO)Cc2ccc(Cl)cc2)cc1 | 19 | IC50 [2]: 0.05 µM; IC50 [4]: 0.14 µM |
| COc1ccc(S(=O)(=O)N(CC(=O)O)CC(=O)NO)cc1 | 345 |  |
| COc1ccc(CN(CC(=O)NO)S(=O)(=O)c2ccc(OC)cc2)cc1 | 29 |  |
| CCC(C)N(CC(=O)NO)S(=O)(=O)c1ccc(OC)cc1 (stereo not given) | 112 |  |
| CC(=O)N1CCC[C@H]1C(=O)N[C@@H](Cc1ccc(O)cc1)C(=O)N[C@@H](Cc1ccc(O)cc1)C(=O)NCC(=O)NO (Ac-PYYG-{NHOH}) | 42 |  |
| CNC(=O)[C@H](CCC(=O)O)NC(=O)C(CC(=O)O)CC(=O)NO (mixture of isomers) | 40 |  |
